Each structure is given as a SMILES string.

As usually defined, the IC50 is the midpoint of a concentration-inhibition curve.

In the experiment the target is Neuropilin-1 (Homo sapiens, UniProt O14786).
Chain of Neuropilin-1 (O14786 whole entry): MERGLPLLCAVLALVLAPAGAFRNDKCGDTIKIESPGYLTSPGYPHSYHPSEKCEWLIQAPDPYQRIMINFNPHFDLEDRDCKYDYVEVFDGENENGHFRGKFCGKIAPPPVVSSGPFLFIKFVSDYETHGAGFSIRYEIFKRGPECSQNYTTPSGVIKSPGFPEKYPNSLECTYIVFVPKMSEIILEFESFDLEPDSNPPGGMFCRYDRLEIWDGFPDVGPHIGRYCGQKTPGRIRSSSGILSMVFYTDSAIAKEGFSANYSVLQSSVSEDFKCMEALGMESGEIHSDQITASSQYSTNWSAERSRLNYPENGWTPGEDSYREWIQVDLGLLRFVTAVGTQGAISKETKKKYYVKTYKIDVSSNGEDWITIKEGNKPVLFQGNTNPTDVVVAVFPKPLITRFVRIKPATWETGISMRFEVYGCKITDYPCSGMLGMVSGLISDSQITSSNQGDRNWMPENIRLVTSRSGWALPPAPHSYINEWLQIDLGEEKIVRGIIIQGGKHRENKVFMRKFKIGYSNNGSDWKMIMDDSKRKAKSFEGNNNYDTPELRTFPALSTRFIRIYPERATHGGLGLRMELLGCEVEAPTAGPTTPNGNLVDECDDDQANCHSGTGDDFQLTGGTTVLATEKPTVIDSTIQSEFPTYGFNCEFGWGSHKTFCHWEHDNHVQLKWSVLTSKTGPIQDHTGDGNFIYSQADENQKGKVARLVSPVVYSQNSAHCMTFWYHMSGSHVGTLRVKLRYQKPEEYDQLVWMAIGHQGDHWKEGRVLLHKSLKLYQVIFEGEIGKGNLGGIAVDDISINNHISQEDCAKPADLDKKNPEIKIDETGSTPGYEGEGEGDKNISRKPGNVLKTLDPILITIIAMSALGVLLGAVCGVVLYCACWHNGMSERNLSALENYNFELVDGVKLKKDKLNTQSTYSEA
Compound `COC(=O)C1=C(C)N=C(C)C(C(=O)OC)C1C(=O)OC(C)C(=O)c1ccccc1` (configuration not stated) [2,6-dimethyl-1,4-dihydropyridine-3,4,5-tricarboxylic acid O3,O5-dimethyl ester O4-(1-oxo-1-phenylpropan-2-yl) ester] registered an IC50 of over 95 µM. Then `CCC1=C(OC(=O)N(CC)CC)N2C(=O)O/C(=N\CC(=O)OC)[C@]2(C)[C@H]2C1=CC[C@H]1C(=O)N(CC)C(=O)[C@H]12` [SMR000440357], with over 95 µM; and `CCC1=C(OC(=O)N(CC)CC)N2C(=O)O/C(=N\CC3CC3)[C@]2(Cc2ccccc2)[C@H]2C1=CC[C@H]1C(=O)N(C)C(=O)[C@H]12` [SMR000440396], with over 95 µM; and `CCC1=C(OC(=O)N(CC)CC)N2C(=O)O/C(=N\CC(=O)OC)[C@]2(Cc2ccccc2)[C@H]2C1=CC[C@H]1C(=O)N(CC(=O)OC)C(=O)[C@H]12` [MLS000877797], with over 95 µM. Then `Cn1cccc1C1Nc2ccccc2N=C2CC(C)(C)CC(=O)C21` (configuration not stated) [MLS000533228], with over 95 µM; and `CC1(c2ccccc2)CC(C)(C)N2C(=O)/C(=C3/NC(=S)NC3=O)c3cccc1c32` (configuration not stated) [SMR000221518], with over 95 µM. With `C=CCN1C(=O)C2(c3ccccc3OC(=N)C2C(=O)OCC)c2c1c1ccccc1oc2=O` (configuration not stated) [2-amino-2',4'-dioxo-1'-prop-2-enyl-3-spiro[1-benzopyran-4,3'-[1]benzopyrano[4,3-b]pyrrole]carboxylic acid ethyl ester] the figure was over 95 µM; with `CCOC(=O)C1=C(C)N=C2CCCC(=O)C2C1c1cn(Cc2ccc(Cl)cc2Cl)nc1-c1ccccc1` (configuration not stated) [4-[1-[(2,4-dichlorophenyl)methyl]-3-phenyl-4-pyrazolyl]-2-methyl-5-oxo-4,6,7,8-tetrahydro-1H-quinoline-3-carboxylic acid ethyl ester], over 95 µM; with `CCC1=C(OC(=O)N(CC)CC)N2C(=O)O/C(=N\CCOC)[C@]2(Cc2ccccc2)[C@H]2C1=CC[C@H]1C(=O)N(CC(=O)OC)C(=O)[C@H]12` [SMR000440375], over 95 µM. As to `COc1ccc2c(c1)N(C)/C(=C1/S/C(=N\Cc3ccccc3)N(c3ccccc3)C1=O)S2` [(5Z)-5-(5-methoxy-3-methyl-1,3-benzothiazol-2-ylidene)-3-phenyl-2-(phenylmethyl)imino-1,3-thiazolidin-4-one], the IC50 was over 95 µM. Regarding `Cc1ccc(N=CC(S(=O)(=O)c2ccccc2)S(=O)(=O)c2ccccc2)cc1`, the IC50 is over 95 µM. Then `CCOC(=O)C1C(=O)C(=O)N(c2ccccc2)C1c1cccc([N+](=O)[O-])c1` (configuration not stated) [ethyl 2-(3-nitrophenyl)-4-oxidanyl-5-oxidanylidene-1-phenyl-2H-pyrrole-3-carboxylate], with over 95 µM; and `CCC(NCCc1ccccc1)=C1C(=O)NC(=O)N(C2CCCCC2)C1=O` [MLS000557927], with over 95 µM. Consider `CCOc1ccc(-n2c(O)cc(N3CCN(c4ccc(Cl)cc4)CC3)c2O)cc1` [3-[4-(4-Chloro-phenyl)-piperazin-1-yl]-1-(4-ethoxy-phenyl)-pyrrolidine-2,5-dione], for which the IC50 is over 95 µM. For `COc1cccc(N2[C@@H](CC(C)=O)c3ccc(C=CC(C)=O)cc3S2(=O)=O)c1` [(E)-4-[(3S)-2-(3-methoxyphenyl)-1,1-bis(oxidanylidene)-3-(2-oxidanylidenepropyl)-3H-1,2-benzothiazol-6-yl]but-3-en-2-one], the IC50 was over 95 µM. For `C=CCOc1ccc(C2C(C(=O)c3c(C)[nH]c(C(=O)OC)c3C)C(=O)C(=O)N2CCN(C)C)cc1` (configuration not stated) [MLS000081294], the IC50 is over 95 µM. The compound `O=C(Cc1ncnc2c1ncn2C1OC(CO)C(O)C1O)c1ccccc1` (configuration not stated) came in with an IC50 of over 95 µM.

Regarding `Cc1ccc(CN=Nc2nc3ccccc3[nH]2)s1` [SMR000261490], the IC50 was over 95 µM. `Cc1ccc2c(c1)=C(c1ccncc1)NN=C(c1ccc(F)cc1)N=2` [MLS000692744] came in with an IC50 of over 95 µM. For `CC(C)C1=NC(=O)NC2CCCCC12` (configuration not stated) [SMR000060291], the 50% inhibitory concentration (IC50) is over 95 µM.

Consider `COc1ccc(-n2c(O)cc(SCCc3nc4ccccc4[nH]3)c2O)cc1` [SMR000200354], for which the concentration for half-maximal inhibition (IC50) was over 95 µM. Consider `Cc1cc2c(cc1C)NC(c1nc3ccccc3[nH]1)C1C(=O)CC(C)(C)CC1=N2` (configuration not stated) [SMR000120514], for which the IC50 was over 95 µM.
